Data taken from ChEMBL document CHEMBL4014283, “Structural insights of SmKDAC8 inhibitors: Targeting Schistosoma epigenetics through a combined structure-based 3D QSAR, in vitro and synthesis strategy” (Bioorg Med Chem, 2017).
Active and inactive are the calls of the source. The rule behind the calls is not given here.

What was measured:
Histone deacetylase 1 = Histone deacetylase 1 (Homo sapiens, UniProt Q13547); assay: Inhibition of full length human C-terminal FLAG/His-tagged KDAC1 expressed in baculovirus expression system at 30 uM using substrate A after 60 mins by microfluidic assay relative to control; settings: 1 h, 30 µM
Chain of Histone deacetylase 1 (Q13547 whole entry, the tested form may be a part): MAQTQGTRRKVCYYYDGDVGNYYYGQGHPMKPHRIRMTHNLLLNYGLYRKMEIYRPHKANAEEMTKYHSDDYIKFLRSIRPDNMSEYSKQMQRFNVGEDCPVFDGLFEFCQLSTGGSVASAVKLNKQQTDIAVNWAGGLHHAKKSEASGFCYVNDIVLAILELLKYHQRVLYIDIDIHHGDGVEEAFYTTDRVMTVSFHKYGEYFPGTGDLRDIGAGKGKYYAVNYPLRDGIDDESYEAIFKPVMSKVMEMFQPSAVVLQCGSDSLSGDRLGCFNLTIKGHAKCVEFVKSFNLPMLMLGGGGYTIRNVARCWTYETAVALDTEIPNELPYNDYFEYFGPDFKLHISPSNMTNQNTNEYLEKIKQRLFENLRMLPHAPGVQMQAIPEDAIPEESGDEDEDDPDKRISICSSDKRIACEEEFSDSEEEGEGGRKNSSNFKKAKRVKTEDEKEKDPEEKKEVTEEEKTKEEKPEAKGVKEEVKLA

[1] = target: Histone deacetylase 3/Nuclear receptor corepressor 2 (HDAC3/NCoR2) (Homo sapiens, UniProt O15379+Q9Y618); assay: (§1) Inhibition of full length human C-terminal His-tagged KDAC3/N-terminal GST-tagged human NCOR2 (395 to 489 residues) expressed in baculovirus expression system at 30 uM using FITC-p53 acetylated peptide as substrate after 60 mins by microfluidic assay; settings: 1 h, 30 µM
Chain of Histone deacetylase 3/Nuclear receptor corepressor 2 (HDAC3/NCoR2) (O15379 whole entry, the tested form may be a part): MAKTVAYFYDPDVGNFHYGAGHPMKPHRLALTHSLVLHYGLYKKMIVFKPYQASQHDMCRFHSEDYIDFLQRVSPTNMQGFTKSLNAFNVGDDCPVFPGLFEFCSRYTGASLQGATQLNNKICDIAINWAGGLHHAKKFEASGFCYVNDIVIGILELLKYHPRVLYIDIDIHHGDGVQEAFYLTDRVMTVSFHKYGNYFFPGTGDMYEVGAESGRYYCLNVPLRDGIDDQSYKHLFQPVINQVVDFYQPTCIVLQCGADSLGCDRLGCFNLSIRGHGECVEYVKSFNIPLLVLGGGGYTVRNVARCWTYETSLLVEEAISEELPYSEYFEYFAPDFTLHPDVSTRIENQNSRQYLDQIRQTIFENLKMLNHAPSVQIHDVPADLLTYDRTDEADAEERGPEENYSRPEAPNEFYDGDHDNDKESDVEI
Chain of Histone deacetylase 3/Nuclear receptor corepressor 2 (HDAC3/NCoR2) (Q9Y618 whole entry, the tested form may be a part): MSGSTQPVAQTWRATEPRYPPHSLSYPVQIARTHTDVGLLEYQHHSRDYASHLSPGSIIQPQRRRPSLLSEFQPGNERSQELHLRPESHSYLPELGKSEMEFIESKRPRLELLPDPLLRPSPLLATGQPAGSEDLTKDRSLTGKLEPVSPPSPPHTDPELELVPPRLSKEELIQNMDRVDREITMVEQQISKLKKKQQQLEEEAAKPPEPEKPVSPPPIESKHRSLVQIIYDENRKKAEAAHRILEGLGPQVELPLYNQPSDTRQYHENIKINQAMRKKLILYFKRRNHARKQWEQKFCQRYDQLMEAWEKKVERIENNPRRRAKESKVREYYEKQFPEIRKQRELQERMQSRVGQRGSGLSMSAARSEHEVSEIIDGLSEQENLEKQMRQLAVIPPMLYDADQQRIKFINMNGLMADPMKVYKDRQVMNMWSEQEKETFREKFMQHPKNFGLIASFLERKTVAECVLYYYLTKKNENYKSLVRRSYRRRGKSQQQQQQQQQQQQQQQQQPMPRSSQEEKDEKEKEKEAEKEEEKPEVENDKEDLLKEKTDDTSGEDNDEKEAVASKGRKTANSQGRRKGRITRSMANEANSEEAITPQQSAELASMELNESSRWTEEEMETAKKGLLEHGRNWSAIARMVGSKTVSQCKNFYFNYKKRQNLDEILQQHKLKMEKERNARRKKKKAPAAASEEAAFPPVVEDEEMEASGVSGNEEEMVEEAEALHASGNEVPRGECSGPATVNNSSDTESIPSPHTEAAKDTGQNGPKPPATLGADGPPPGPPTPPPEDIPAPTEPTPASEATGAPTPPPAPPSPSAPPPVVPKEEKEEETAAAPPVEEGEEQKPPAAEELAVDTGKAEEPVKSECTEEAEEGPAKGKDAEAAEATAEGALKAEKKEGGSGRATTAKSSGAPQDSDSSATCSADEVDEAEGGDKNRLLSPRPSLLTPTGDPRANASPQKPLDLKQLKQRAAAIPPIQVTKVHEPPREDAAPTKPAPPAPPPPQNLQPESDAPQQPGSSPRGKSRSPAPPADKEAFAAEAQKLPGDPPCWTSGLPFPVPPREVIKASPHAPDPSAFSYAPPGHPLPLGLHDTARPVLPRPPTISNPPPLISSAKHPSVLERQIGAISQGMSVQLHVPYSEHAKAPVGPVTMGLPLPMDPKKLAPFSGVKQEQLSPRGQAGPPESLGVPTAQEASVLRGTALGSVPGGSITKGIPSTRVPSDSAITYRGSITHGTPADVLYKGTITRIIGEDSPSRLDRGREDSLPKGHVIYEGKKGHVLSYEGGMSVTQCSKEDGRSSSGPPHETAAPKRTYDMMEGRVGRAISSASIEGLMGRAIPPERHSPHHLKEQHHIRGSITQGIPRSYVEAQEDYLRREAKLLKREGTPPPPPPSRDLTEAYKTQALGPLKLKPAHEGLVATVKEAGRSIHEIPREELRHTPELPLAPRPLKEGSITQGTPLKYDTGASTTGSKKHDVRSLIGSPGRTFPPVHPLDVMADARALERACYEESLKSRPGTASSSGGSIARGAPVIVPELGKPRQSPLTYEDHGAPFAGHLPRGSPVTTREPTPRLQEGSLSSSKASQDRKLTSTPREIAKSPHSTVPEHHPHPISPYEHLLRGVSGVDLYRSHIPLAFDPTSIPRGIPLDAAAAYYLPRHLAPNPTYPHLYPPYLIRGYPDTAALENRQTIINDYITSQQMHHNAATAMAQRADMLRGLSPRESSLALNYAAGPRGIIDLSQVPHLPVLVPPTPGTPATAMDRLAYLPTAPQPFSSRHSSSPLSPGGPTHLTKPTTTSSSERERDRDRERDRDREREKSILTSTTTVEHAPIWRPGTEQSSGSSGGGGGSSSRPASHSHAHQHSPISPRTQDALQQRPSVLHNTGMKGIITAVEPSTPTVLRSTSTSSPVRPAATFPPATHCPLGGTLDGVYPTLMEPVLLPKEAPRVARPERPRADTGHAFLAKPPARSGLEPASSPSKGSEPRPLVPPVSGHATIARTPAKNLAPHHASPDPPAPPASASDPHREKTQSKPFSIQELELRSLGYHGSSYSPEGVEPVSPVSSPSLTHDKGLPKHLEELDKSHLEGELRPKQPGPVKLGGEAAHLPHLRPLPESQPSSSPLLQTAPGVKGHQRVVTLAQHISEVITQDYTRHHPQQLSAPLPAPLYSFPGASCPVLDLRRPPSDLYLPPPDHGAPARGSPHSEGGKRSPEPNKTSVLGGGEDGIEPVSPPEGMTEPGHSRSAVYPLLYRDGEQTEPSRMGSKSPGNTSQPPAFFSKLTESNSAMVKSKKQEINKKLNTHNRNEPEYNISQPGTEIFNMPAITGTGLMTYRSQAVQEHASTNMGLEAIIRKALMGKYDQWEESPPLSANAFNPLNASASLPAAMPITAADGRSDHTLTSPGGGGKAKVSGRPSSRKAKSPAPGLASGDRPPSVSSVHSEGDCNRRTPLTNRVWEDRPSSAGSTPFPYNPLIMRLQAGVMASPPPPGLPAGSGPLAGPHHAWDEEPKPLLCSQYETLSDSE

[2] = target: T1, Protein deacetylase HDAC6 (Homo sapiens, UniProt Q9UBN7); assay: (§2) Inhibition of human KDAC6 expressed in baculovirus expression system at 30 uM using FITC-Histone 4 acetylated peptide as substrate after 60 mins by microfluidic assay; settings: 1 h, 30 µM
T1 sequence (Q9UBN7 whole entry): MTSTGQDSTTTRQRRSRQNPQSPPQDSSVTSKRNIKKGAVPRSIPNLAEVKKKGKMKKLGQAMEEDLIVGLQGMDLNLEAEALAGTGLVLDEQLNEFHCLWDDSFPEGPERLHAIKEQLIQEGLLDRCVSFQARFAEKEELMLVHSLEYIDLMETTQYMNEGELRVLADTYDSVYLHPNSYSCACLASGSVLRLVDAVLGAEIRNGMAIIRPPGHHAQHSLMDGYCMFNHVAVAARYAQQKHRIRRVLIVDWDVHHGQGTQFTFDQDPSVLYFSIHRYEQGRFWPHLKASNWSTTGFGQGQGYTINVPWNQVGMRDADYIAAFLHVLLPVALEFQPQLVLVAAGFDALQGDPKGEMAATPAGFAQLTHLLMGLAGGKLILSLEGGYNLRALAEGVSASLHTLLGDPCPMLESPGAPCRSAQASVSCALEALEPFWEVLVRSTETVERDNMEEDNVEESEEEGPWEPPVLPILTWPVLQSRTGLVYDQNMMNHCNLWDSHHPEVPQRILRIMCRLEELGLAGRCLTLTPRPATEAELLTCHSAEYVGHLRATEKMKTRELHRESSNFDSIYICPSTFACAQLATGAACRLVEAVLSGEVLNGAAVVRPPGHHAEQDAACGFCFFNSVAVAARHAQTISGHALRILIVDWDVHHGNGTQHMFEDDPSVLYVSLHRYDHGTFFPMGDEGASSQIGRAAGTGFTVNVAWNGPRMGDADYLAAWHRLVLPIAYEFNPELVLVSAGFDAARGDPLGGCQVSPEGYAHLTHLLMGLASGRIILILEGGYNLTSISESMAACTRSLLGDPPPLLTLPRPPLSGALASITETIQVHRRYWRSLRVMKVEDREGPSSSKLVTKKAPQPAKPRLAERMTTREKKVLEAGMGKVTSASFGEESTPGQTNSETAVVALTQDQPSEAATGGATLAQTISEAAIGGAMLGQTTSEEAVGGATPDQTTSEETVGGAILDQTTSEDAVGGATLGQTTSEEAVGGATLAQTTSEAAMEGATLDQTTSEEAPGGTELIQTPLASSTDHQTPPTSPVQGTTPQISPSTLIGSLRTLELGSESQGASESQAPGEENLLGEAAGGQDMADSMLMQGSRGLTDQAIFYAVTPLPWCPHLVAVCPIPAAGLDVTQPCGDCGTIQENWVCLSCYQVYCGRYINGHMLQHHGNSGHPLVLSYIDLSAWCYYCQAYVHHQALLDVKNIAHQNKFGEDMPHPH

Histone deacetylase 8 = target: T2, Histone deacetylase 8 (Homo sapiens, UniProt Q9BY41); assay: (§3) Inhibition of full length human C-terminal His-tagged KDAC8 expressed in baculovirus expression system at 30 uM using (FAM)-labeled peptide as substrate after 60 mins by microfluidic assay relative to control; settings: 1 h, 30 µM
T2 sequence (Q9BY41 whole entry): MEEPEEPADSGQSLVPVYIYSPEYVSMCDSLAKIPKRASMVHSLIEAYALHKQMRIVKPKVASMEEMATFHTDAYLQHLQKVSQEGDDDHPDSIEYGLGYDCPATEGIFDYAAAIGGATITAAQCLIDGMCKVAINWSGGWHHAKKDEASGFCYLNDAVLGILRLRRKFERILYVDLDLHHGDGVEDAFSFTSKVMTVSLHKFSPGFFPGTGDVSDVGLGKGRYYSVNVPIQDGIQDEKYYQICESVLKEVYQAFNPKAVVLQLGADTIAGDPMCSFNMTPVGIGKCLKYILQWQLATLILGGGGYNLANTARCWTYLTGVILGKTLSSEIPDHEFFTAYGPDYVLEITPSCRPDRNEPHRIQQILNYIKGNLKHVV

[3] = target: T3, Histone deacetylase 8 (Schistosoma mansoni) (UniProt A5H660); assay: Inhibition of Schistosoma mansoni KDAC8 at 30 uM using (FAM)-labeled peptide as substrate after 60 mins by microfluidic assay
T3 sequence (whole entry): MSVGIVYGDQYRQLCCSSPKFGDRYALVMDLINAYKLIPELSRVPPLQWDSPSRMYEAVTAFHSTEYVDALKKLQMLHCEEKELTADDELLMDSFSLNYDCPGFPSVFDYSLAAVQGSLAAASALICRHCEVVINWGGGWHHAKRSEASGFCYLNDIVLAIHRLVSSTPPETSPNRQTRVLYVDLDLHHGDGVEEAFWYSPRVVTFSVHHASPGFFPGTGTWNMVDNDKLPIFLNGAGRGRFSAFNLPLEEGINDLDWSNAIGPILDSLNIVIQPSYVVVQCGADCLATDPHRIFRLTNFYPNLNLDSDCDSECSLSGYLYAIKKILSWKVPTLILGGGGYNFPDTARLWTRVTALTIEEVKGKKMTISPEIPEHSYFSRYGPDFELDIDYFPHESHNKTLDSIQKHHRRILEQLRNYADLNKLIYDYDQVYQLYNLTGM

[4] = target: KDAC3/NCOR2 (histone deacetylase 3/nuclear receptor corepressor 2 complex) (Homo sapiens, UniProt O15379); assay: as §1; settings: probe FITC-p53 acetylated peptide
Chain of KDAC3/NCOR2 (histone deacetylase 3/nuclear receptor corepressor 2 complex) (O15379 whole entry): as the sequence (O15379 whole entry, the tested form may be a part) above
Chain of KDAC3/NCOR2 (histone deacetylase 3/nuclear receptor corepressor 2 complex) (Q9Y618 whole entry, further chain): as the sequence (Q9Y618 whole entry, the tested form may be a part) above

[5] = target: T4, KDAC6 (protein deacetylase HDAC6) (Homo sapiens, UniProt Q9UBN7); assay: as §2; settings: probe FITC-Histone 4 acetylated peptide
T4 sequence (Q9UBN7 whole entry): T1 sequence (Q9UBN7 whole entry)

[6] = target: T5, KDAC8 (histone deacetylase 8) (Homo sapiens, UniProt Q9BY41); assay: as §3; settings: probe (FAM)-labeled peptide
T5 sequence (Q9BY41 whole entry): T2 sequence (Q9BY41 whole entry)

SMILES	inhibition (INH) (Histone deacetylase 1)	inhibition (INH) [1]	inhibition (INH) [2]	inhibition (INH) (Histone deacetylase 8)	inhibition [3]	inhibition at 1 h, 30 µM [4] [%]	inhibition at 1 h, 30 µM [5] [%]	inhibition at 1 h, 30 µM [6] [%]
Nc1ccccc1Sc1cc(Cl)nnc1Cl	Not Active	Not Active	Not Active	Not Active	inactive	–	–	–
O=C1CSC(=S)N1/N=C/c1c[nH]c2ccc(Br)cc12	Not Active	–	–	Not Active	inactive	10	18	–
CCOC(=O)Nc1ccc2nc(N3CCCCCC3)sc2c1	Not Active	Not Active	Not Active	–	5%	–	–	6
CCOC(=O)c1cc2c(OC)c(OC)ccc2c2ncc(C#N)c(O)c12	Not Active	–	Not Active	–	inactive	2	–	15
Cc1ccc(Nc2nnc(S)s2)cc1F	Not Active	–	Not Active	Not Active	8%	2	–	–
CC(C)NCC1CCc2cc(CO)c([N+](=O)[O-])cc2N1 (stereo not given) [OXAMNIQUINE]	Not Active	Not Active	Not Active	Not Active	inactive	–	–	–
S=C(SCc1cc(Cl)cc2c1OCOC2)N1CCSCC1	Not Active	Not Active	Not Active	–	inactive	–	–	4
CCOC(=O)C1=C(N)N=C(N)C1=Nc1ccc(OC)cc1	Not Active	–	Not Active	Not Active	inactive	7	–	–
COC(=O)C(=Cc1ccccc1[N+](=O)[O-])C(=O)OC	Not Active	–	Not Active	Not Active	3%	3	–	–
Cc1cc(-n2cnc3c(O)ncnc32)ccc1N	Not Active	Not Active	Not Active	Not Active	1%	–	–	–
Cc1c(COC(=O)N(C)C)c(COC(=O)NC(C)C)c2n1CS(=O)(=O)C2	Not Active	–	Not Active	–	inactive	3	–	7
O=C(OCC(O)COC(=O)c1cccnc1)c1cccnc1	Not Active	Not Active	Not Active	Not Active	inactive	–	–	–
C=CCN=C(S)Nc1cccc([N+](=O)[O-])c1	Not Active	–	Not Active	Not Active	2%	3	–	–
